Holding throughout (test): isoTOP-ABPP mapping of AEA-DA-modified peptides in Neuro2a cells
What all share (type): cell-based

The target in experiment [1] is T1, AEA-DA-modified peptides in Neuro2a cells (Mus musculus, UniProt P14733).
T1 construct: endogenous in cells; host or cells: Neuro2a
The note with it: AEA-DA-modified peptide LMNB1 P14733 159-183, SEQ ID NO 56; probe 100 μM, 12 replicates. As for the experimental part:
(§1) Experiments were performed as described above using the AEA-DA probe (100 μM) in 3.0 mL of DMEM (serum-free) and Neuro2A cells without (twelve replicates; ten biological; two technical). For the ligand competition study, cells were treated with the AEA-DA probe (50 μM) and DMSO or MJN228 (50 μM) treatment. Cells were harvested and processed as described above. Whole cell lysates (500 μL at 1.5 mg/mL) were processed for MS analysis using the previously described isoTOPABPP protocol (Speers and Cravatt, 2005). In brief, for global mapping of AEA-DA-modified peptides, proteomes were split into two fractions, which were subjected to click chemistry conditions with either light or heavy isotopically labeled TEV-tags. For the […] competition study, proteomes were subjected to click chemistry conditions with either light (DMSO) or heavy (MJN228-treated) TEV-tags. Light and heavy-tagged proteomes in each experiment were then combined, and, following enrichment of probe-labeled targets using streptavidin beads, proteins were digested on-bead with trypsin and remaining immobilized peptides released with a subsequent TEV protease digestion. The resulting probe-modified peptides were collected for MS analysis, which was performed as described above with differences in the salt bumps applied in the chromatographic gradients which were 0%, 30%, 60%, 90% and 100% NH4OAc (500 mM). The protein identification searches of the MS data were performed using the same software packages described above with the following changes applied to identify the peptides modified with AEA-DA and the cleaved TEV tag. All amino acids were considered as possible residues for modification. To facilitate the computational searches, sets of up to 3 amino acids were searched using ProLuCID and filtered with DTASelect as described above. The mass of the modification used to search for probe-modified peptides was +727.4745 m/z for the probe plus the light TEV-tag and +733.4831 m/z for the heavy counterpart. […] For global mapping experiments, AEA-DA-modified peptides were expected to show a ratio of “heavy” and “light” signals of ˜1.0 (0.5<ratio<2.0) and were required to have been detected in at least two of the twelve replicate experiments.
(§2) In some embodiments, the ligands are tested for their interaction to NUCB1 in cells. […] MJN228 inhibited lipid probe binding to NUCB1 at concentrations as low as 10 μM, with near-maximal inhibition observed at ˜25 μM (FIG. 16A). […] The site of arachidonoyl probe (and MJN228) binding to NUCB1 was mapped in cells, which was accomplished by treating Neuro2A cells with the AEA-DA probe (50 μM) in the presence of DMSO or MJN228 (50 μM), followed by UV irradiation, CuAAC conjugation of AEA-DA-labeled proteins to isotopically light (DMSO-treated cells) and heavy (MJN228-treated cells) azide-biotin tags featuring a TEV protease-cleavable linker, and LCMS/MS analysis using a previously described platform, termed isoTOP-ABPP, for mapping probe-modified peptides in proteomes (Speers and Cravatt, 2005). A AEA-DA labeled peptide was identified for NUCB1 (aa 53-68) in DMSO-treated cells and the signals for this peptide were substantially (>5-fold) reduced in MJN228-treated cells (FIG. 15C). This AEA-DA labeling site was confirmed using recombinant, purified hNUCB1 and tandem MS analysis which narrowed down the site of probe modification to His67 (FIGS. 16B and 16C).

Experiment [2] concerns the target T2, AEA-DA-modified peptides in Neuro2a cells (Mus musculus, UniProt P42208).
T2 construct: endogenous in cells; host or cells: Neuro2a
The note with it: AEA-DA-modified peptide SEPT2 P42208 78-92, SEQ ID NO 98; probe 100 μM, 12 replicates. As to the method:
as §1, §2

Experiment [3] addresses T3, AEA-DA-modified peptides in Neuro2a cells (Mus musculus, UniProt P56812).
T3 construct: endogenous in cells; host or cells: Neuro2a
The note with it: AEA-DA-modified peptide PDCD5 P56812 69-80, SEQ ID NO 80; probe 100 μM, 12 replicates. As to the method:
as §1, §2

Experiment [4] has as its target T4, AEA-DA-modified peptides in Neuro2a cells (Mus musculus, UniProt P61161).
T4 construct: endogenous in cells; host or cells: Neuro2a
The following applies: AEA-DA-modified peptide ACTR2 P61161 259-295, SEQ ID NO 5; probe 100 μM, 12 replicates. As to the method: as §1, §2

The target in experiment [5] is T5, AEA-DA-modified peptides in Neuro2a cells (Mus musculus, UniProt P61205).
T5 construct: endogenous in cells; host or cells: Neuro2a
The following applies: AEA-DA-modified peptide ARF3 P61205 39-60, SEQ ID NO 11; probe 100 μM, 12 replicates. As to the method:
as §1, §2

The target of experiment [6] is T6, AEA-DA-modified peptides in Neuro2a cells (Mus musculus, UniProt Q62351).
T6 construct: endogenous in cells; host or cells: Neuro2a
The note with it: AEA-DA-modified peptide TFRC Q62351 7-23, SEQ ID NO 110; probe 100 μM, 12 replicates. As to the method: as §1, §2

For experiment [7], the target named is T7, AEA-DA-modified peptides in Neuro2a cells (Mus musculus, UniProt Q8BVU5).
T7 construct: endogenous in cells; host or cells: Neuro2a
The following applies: AEA-DA-modified peptide NUDT9 Q8BVU5 230-242, SEQ ID NO 73; probe 100 μM, 12 replicates. As to the method:
as §1, §2

The target of experiment [8] is T8, AEA-DA-modified peptides in Neuro2a cells (Mus musculus, UniProt Q8CIV2).
T8 construct: endogenous in cells; host or cells: Neuro2a
The following applies: AEA-DA-modified peptide ORF61 Q8CIV2 245-263, SEQ ID NO 75; probe 100 μM, 12 replicates. As for the experimental part:
as §1, §2

Experiment [9] has as its target T9, AEA-DA-modified peptides in Neuro2a cells (Mus musculus, UniProt Q8R0X7).
T9 construct: endogenous in cells; host or cells: Neuro2a
The note with it: probe 100 μM, 12 replicates. As to the method: as §1, §2

The target in experiment [10] is T10, AEA-DA-modified peptides in Neuro2a cells (Mus musculus, UniProt Q8R127).
T10 construct: endogenous in cells; host or cells: Neuro2a
The following applies: AEA-DA-modified peptide SCCPDH Q8R127 145-168, SEQ ID NO 96; probe 100 μM, 12 replicates. As for the experimental part:
as §1, §2

For experiment [11], the target named is T11, AEA-DA-modified peptides in Neuro2a cells (Mus musculus, UniProt Q99JB2).
T11 construct: endogenous in cells; host or cells: Neuro2a
The note with it: AEA-DA-modified peptide STOML2 Q99JB2 292-322, SEQ ID NO 107; probe 100 μM, 12 replicates. As for the experimental part: as §1, §2

Experiment [12] has as its target T12, AEA-DA-modified peptides in Neuro2a cells (Mus musculus, UniProt Q9CQX2).
T12 construct: endogenous in cells; host or cells: Neuro2a
The following applies: AEA-DA-modified peptide CYB5B Q9CQX2 138-145, SEQ ID NO 28; probe 100 μM, 12 replicates. As for the experimental part: as §1, §2

The structures appear in SMILES notation.

T9 sequence (Q8R0X7 whole entry): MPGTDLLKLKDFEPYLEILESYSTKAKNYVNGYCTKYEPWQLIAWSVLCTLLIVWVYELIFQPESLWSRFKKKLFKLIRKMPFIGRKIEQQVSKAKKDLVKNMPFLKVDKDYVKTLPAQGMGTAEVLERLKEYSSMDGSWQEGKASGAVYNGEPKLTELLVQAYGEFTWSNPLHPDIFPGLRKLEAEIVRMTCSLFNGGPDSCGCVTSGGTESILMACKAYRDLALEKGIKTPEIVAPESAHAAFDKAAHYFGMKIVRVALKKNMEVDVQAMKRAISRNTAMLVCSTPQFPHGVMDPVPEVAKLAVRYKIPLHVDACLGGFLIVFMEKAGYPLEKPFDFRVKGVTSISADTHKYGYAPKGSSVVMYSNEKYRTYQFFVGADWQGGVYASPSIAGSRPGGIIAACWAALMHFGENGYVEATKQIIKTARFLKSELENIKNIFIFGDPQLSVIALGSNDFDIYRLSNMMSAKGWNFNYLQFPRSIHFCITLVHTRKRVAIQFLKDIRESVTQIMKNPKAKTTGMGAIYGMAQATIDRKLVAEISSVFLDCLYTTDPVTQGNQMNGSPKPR
T6 sequence (Q62351 whole entry): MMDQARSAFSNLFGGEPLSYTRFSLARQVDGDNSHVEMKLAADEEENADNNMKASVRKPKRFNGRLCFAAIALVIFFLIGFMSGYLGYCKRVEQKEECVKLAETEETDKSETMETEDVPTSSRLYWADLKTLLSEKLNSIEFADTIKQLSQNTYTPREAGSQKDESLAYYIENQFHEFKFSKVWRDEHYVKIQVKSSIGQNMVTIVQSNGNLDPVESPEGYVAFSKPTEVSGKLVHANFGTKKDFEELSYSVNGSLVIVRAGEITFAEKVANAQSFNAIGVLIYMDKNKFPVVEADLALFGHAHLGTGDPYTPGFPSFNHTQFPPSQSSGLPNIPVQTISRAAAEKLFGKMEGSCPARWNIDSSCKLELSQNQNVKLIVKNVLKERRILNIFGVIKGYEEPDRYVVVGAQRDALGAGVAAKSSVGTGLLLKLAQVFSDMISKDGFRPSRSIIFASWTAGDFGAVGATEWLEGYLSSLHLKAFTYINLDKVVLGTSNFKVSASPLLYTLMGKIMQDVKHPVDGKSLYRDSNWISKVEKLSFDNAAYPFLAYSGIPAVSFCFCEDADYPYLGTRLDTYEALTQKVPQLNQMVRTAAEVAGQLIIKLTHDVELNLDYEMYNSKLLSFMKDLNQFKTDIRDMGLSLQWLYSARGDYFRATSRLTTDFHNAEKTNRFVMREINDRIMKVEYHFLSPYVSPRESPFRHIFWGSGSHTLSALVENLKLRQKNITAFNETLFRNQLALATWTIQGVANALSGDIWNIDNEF
T1 sequence (P14733 whole entry): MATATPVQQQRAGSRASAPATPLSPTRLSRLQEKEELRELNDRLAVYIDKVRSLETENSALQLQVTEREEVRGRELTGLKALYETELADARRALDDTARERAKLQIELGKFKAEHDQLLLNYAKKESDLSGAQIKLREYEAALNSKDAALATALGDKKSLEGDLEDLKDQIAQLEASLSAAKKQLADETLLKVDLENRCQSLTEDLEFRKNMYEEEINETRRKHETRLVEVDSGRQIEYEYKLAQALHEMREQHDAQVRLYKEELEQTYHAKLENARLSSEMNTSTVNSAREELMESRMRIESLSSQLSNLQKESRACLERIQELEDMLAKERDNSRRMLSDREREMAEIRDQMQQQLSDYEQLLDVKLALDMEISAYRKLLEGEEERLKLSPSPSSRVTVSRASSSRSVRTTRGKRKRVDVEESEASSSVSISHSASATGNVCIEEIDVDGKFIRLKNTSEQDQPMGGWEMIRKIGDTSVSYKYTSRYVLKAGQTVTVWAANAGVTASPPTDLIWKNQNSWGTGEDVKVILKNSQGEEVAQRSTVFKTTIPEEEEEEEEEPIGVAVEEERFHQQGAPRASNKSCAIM
T8 sequence (Q8CIV2 whole entry): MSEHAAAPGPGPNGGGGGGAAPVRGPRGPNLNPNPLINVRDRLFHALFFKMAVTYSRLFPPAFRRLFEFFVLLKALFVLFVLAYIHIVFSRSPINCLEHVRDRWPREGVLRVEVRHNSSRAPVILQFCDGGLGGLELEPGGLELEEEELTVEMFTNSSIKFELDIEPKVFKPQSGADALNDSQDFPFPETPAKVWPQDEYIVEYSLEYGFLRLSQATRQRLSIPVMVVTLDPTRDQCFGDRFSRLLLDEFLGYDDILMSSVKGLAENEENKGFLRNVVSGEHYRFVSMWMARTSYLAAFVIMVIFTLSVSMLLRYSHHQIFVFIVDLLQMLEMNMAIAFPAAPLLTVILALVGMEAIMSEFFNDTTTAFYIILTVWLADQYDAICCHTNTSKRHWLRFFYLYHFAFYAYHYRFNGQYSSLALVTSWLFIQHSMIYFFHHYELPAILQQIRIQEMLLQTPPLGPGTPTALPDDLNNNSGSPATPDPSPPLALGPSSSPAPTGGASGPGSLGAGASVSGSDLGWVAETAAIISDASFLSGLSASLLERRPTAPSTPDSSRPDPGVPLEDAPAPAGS
T2 sequence (P42208 whole entry): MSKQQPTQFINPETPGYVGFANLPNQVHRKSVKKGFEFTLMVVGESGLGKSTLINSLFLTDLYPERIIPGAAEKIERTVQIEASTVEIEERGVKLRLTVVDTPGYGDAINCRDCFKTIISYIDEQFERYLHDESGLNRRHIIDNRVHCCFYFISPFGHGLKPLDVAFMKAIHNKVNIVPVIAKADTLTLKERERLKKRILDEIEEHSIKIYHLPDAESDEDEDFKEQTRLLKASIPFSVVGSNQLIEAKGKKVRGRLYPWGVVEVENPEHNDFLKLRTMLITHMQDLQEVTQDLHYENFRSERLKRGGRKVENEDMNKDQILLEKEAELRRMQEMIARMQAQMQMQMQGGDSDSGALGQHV
T7 sequence (Q8BVU5 47-350): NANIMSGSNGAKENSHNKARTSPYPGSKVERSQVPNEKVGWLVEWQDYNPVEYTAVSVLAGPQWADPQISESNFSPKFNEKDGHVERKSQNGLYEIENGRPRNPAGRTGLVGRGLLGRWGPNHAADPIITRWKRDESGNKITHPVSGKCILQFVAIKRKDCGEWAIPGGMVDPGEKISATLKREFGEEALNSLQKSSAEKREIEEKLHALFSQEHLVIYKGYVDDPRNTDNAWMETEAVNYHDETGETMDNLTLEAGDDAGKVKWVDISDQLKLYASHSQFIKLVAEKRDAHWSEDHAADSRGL
T11 sequence (Q99JB2 29-353): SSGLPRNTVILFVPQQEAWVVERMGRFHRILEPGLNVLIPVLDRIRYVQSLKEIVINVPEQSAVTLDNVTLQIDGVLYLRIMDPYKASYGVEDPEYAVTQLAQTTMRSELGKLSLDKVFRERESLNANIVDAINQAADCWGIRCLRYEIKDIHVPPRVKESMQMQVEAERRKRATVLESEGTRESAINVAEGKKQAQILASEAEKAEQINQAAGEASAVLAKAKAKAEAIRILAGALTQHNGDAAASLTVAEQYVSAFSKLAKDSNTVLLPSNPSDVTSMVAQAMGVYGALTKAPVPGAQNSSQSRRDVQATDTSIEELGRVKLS
T5 sequence (P61205 whole entry): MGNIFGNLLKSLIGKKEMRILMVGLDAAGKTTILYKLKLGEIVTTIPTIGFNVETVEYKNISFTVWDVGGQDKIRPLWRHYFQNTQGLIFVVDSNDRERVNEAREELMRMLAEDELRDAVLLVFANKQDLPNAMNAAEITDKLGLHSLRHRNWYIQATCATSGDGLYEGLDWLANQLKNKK
T10 sequence (Q8R127 whole entry): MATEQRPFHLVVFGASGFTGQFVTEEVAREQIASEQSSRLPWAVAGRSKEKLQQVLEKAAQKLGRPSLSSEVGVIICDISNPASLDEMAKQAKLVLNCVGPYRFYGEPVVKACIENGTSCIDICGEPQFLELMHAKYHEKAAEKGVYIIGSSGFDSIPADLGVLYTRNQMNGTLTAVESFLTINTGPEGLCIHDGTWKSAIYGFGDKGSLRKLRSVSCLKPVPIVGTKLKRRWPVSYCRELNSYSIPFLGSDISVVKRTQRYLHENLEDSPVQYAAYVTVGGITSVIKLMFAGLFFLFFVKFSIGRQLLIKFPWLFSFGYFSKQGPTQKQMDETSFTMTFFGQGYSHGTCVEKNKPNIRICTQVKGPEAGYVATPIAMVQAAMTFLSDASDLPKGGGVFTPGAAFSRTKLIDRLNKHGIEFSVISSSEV
T12 sequence (Q9CQX2 12-146): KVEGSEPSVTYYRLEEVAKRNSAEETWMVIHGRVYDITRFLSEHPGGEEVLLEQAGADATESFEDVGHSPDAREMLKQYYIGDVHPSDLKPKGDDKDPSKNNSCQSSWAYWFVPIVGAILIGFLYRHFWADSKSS
T3 sequence (P56812 whole entry): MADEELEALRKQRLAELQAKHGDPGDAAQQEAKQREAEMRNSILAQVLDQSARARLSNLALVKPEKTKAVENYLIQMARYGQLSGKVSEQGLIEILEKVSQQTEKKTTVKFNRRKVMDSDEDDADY

As to `C#CCCCC1(CC/C=C\C/C=C\C/C=C\CCCC(=O)NCCO)N=N1` [AEA-DA, (5Z,8Z,11Z)-N-(2-hydroxyethyl)-14-(3-(pent-4-yn-1-yl)-3H-diazirin-3-yl)tetradeca-5,8,11-trienamide], the Times observed in [1] is 2; in experiment [2] it was 2; in experiment [3], 5; in experiment [4], 2; in experiment [5], 9; in experiment [6], 2. The Times observed in [7] is recorded as 7; in experiment [8], 4; in [9] (AEA-DA-modified peptide SGPL1 Q8R0X7 9-26, SEQ ID NO 100) it was 4; in experiment [9] (AEA-DA-modified peptide SGPL1 Q8R0X7 519-536, SEQ ID NO 99), 12; in experiment [10], 11; in experiment [11], 2. This compound returned a Times observed in experiment [12] of 2.

Values taken from patent US10168342B2, “Lipid probes and uses thereof” (THE SCRIPPS RESEARCH INSTITUTE, priority 2015, dated 2019).
